Drawing on patent US8865703B2, “Pyridyltriazoles” (Boehringer Ingelheim International GmbH, priority 2010, dated 2014), this text covers IC50 for 50 compounds.

The assay has as its target T1, B-Raf (V600E)-kinase (Homo sapiens, UniProt P15056, V600E).
T1 construct: purchased Upstate
In words: Kinase test B-Raf (V600E). In kind it is biochemical. The following applies: 1 h incubation with kinase before start, 250 μM ATP, biotinylated MEK1 substrate. How it is done:
Kinase Test B-Raf (V600E)
In a dilution series 10 μL/well of test substance solution are placed in a multiwell plate. The dilution series is selected so that generally a range of concentrations of 2 μM to 0.119 nM or 0.017 nM is covered. If necessary the initial concentration of 2 μM is changed to 50 μM, 10 μM, 0.4 μM or 0.2857 μM and further dilution is carried out accordingly. The final concentration of DMSO is 5%. 10 μL/well of the B-Raf (V600E)-kinase solution are pipetted in (containing 0.5 ng B-Raf (V600E)-kinase, e.g. from Upstate) in 20 mM tris-HCl pH 7.5, 0.1 mM EDTA, 0.1 mM EGTA, 0.286 mM sodium orthovanadate, 10% glycerol, 1 mg/mL bovine serum albumin, 1 mM dithiothreitol) and the mixture is incubated for 1 h at RT with shaking. The kinase reaction is started by the addition of 20 μL/well ATP solution [final concentration: 250 μM ATP, 30 mM tris-HCl pH 7.5, 0.02% Brij, 0.2 mM sodium orthovanadate, 10 mM magnesium acetate, 0.1 mM EGTA, phosphatase cocktail (Sigma, # P2850, dilution recommended by the manufacturer)] and 10 μL/well MEK1 solution [containing 50 ng biotinylated MEK1 (prepared from purified MEK1 according to standard procedure, e.g. with EZ-Link Sulpho-NHS-LC-Biotin reagent, Pierce, #21335)] and carried out for 60 min at RT with constant shaking. The reaction is stopped by the addition of 12 μL/well of a 100 mM EDTA solution and incubation is continued for a further 5 min. 55 μL/well of the reaction solution are transferred into a streptavidin-coated plate (e.g. Streptawell HighBond, Roche, #11989685001) and gently shaken for 1 h at RT in order to bind biotinylated MEK1 to the plate. After elimination of the liquid the plate is washed five times with 200 μL/well of 1×PBS and 100 μL/well solution of primary antibody plus europium-labelled secondary antibody [Anti Phospho-MEK (Ser217/221), Cell Signaling, #9121 and Eu-N1 labelled goat-anti-rabbit antibody, Perkin Elmer, # AD0105] is added, the primary antibody is diluted 1:2000 and the secondary antibody is diluted to 0.4-0.5 μg/mL in Delfia Assay Buffer (Perkin Elmer, #1244-111). After 1 h shaking at RT the solution is poured away and washed five times with 200 μL/well Delfia Wash Buffer (Perkin Elmer, #4010-0010/#1244-114). After the addition of 200 μL/well Enhancement Solution (Perkin Elmer, #4001-0010/#1244-105) the mixture is shaken for 10 min at RT and then measured in a Wallac Victor using the program “Delfia Time Resolved Fluorescence (Europium)”. IC50 values are obtained from these dosage-activity curves using a software program (GraphPadPrizm).

T1 sequence (P15056 whole entry V600E): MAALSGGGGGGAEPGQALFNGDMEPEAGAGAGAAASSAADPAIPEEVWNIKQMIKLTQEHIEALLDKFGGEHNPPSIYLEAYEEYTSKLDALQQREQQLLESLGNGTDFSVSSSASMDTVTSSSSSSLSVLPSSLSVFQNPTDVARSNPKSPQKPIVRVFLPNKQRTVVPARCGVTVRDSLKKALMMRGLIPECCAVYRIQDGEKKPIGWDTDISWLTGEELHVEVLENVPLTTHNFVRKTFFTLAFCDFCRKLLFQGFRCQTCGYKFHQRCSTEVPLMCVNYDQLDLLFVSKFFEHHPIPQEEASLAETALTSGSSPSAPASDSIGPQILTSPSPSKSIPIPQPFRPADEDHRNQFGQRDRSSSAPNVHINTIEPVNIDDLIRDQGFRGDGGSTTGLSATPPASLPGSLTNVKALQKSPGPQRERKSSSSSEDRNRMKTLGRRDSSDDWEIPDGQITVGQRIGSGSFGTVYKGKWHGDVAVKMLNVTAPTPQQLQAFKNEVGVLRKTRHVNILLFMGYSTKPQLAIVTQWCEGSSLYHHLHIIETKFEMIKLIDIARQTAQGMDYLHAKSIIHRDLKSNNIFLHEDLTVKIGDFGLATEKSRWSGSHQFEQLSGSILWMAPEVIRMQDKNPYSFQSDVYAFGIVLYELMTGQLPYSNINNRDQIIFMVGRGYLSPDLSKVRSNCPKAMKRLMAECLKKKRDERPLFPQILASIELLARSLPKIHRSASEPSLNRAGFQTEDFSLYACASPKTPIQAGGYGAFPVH

`Cc1ncc(NC(=O)c2ccc(C(C)(C)C)o2)cc1-n1cc(-c2cncc(N3CCN(C(C)C)CC3)c2)nn1` [I-1] registered a half-maximal inhibitory concentration (IC50) of 4 nM.
`Cc1ncc(NC(=O)c2ccc(C(C)(C)C)o2)cc1-n1cc(-c2cncc(N3CCN(C)CC3)c2)nn1` [I-2] displayed a concentration for half-maximal inhibition (IC50) of 2 nM.
To `CCN1CCN(c2cncc(-c3cn(-c4cc(NC(=O)c5ccc(C(C)(C)C)o5)cnc4C)nn3)c2)CC1` [I-3] belongs 3 nM.
For `Cc1ncc(NC(=O)c2ccc(C(C)(C)C)o2)cc1-n1cc(-c2cncc(N3CCN(C(C)(C)C)CC3)c2)nn1` [I-4] the value was 4 nM.
For `Cc1ncc(NC(=O)c2ccc(C(C)(C)C)o2)cc1-n1cc(-c2cncc(N3CCN(CC4CC4)CC3)c2)nn1` [I-5] the value was 3 nM.
The compound `COCCCN1CCN(c2cncc(-c3cn(-c4cc(NC(=O)c5ccc(C(C)(C)C)o5)cnc4C)nn3)c2)CC1` [I-6] yielded an IC50 of 5 nM.
For the compound `CCOCCN1CCN(c2cncc(-c3cn(-c4cc(NC(=O)c5ccc(C(C)(C)C)o5)cnc4C)nn3)c2)CC1` [I-7], the midpoint of inhibition, the IC50, lay at 5 nM.
Regarding `CCOCCN1CCN(c2cncc(-c3cn(-c4cc(NC(=O)c5ccc(C(C)(C)C)s5)cnc4C)nn3)c2)CC1` [I-8], the IC50 was 8 nM.
Turning to `COCCCN1CCN(c2cncc(-c3cn(-c4cc(NC(=O)c5ccc(C(C)(C)C)s5)cnc4C)nn3)c2)CC1` [I-9], 7 nM corresponded to half-maximal inhibition (IC50).
To `Cc1ncc(NC(=O)c2ccc(C(C)(C)C)s2)cc1-n1cc(-c2cncc(N3CCN(CC4CC4)CC3)c2)nn1` [I-10] belongs 6 nM; to `Cc1ncc(NC(=O)c2ccc(C(C)(C)C)s2)cc1-n1cc(-c2cncc(N3CCN(C(C)(C)C)CC3)c2)nn1` [I-11], 6 nM.
Compound `CCN1CCN(c2cncc(-c3cn(-c4cc(NC(=O)c5ccc(C(C)(C)C)s5)cnc4C)nn3)c2)CC1` [I-12] registered an IC50 of 3 nM.
In turn, `Cc1ncc(NC(=O)c2ccc(C(C)(C)C)s2)cc1-n1cc(-c2cncc(N3CCN(C(C)C)CC3)c2)nn1` [I-13] came in with a half-maximal inhibitory concentration (IC50) of 5 nM.
In turn, `Cc1ncc(NC(=O)c2ccc(C(C)(C)C)s2)cc1-n1cc(-c2cncc(N3CCN(C)CC3)c2)nn1` [I-14] had an IC50 of 2 nM.
As for `Cc1ncc(NC(=O)c2cc(C)n(C(C)(C)C)n2)cc1-n1cc(-c2cncc(N3CCN(C4CC4)CC3)c2)nn1` [I-15], the 50% inhibitory concentration (IC50) amounted to 20 nM.
In turn, `Cc1ncc(NC(=O)c2cc(C)n(C(C)(C)C)n2)cc1-n1cc(-c2cncc(N3CCCN(C)CC3)c2)nn1` [I-16] yielded a concentration for half-maximal inhibition (IC50) of 9 nM.
For `CCCN1CCN(c2cncc(-c3cn(-c4cc(NC(=O)c5cc(C)n(C(C)(C)C)n5)cnc4C)nn3)c2)CC1` [I-17] the value was 10 nM; for `Cc1ncc(NC(=O)c2cc(C)n(C(C)(C)C)n2)cc1-n1cc(-c2cncc(N3CCN(C)CC3)c2)nn1` [I-18], 8 nM; for `Cc1ncc(NC(=O)c2cc(C)n(C(C)(C)C)n2)cc1-n1cc(-c2cncc(N3CCN(C(C)C)CC3)c2)nn1` [I-19], 8 nM.
`CCN1CCN(c2cncc(-c3cn(-c4cc(NC(=O)c5cc(C)n(C(C)(C)C)n5)cnc4C)nn3)c2)CC1` [I-20] displayed a concentration for half-maximal inhibition (IC50) of 7 nM.
To `Cc1ncc(NC(=O)c2cc(C)n(C(C)(C)C)n2)cc1-n1cc(-c2cncc(N3CCN(C(C)(C)C)CC3)c2)nn1` [I-21] belongs 9 nM.
In turn, `Cc1ncc(NC(=O)c2cc(C)n(C(C)(C)C)n2)cc1-n1cc(-c2cncc(N3CCN(CC4CC4)CC3)c2)nn1` [I-22] had an IC50 of 11 nM.
On to `COCCCN1CCN(c2cncc(-c3cn(-c4cc(NC(=O)c5cc(C)n(C(C)(C)C)n5)cnc4C)nn3)c2)CC1` [I-23], for which the 50% inhibitory concentration (IC50) turned out to be 14 nM.
On to `CCOCCN1CCN(c2cncc(-c3cn(-c4cc(NC(=O)c5cc(C)n(C(C)(C)C)n5)cnc4C)nn3)c2)CC1` [I-24], for which the 50% inhibitory concentration (IC50) came to 16 nM.
Compound `Cc1ncc(NC(=O)c2cc(C)n(C(C)(C)C)n2)cc1-n1cc(-c2cncc(N3CCN(CCOC(C)C)CC3)c2)nn1` [I-25] showed a 50% inhibitory concentration (IC50) of 16 nM.
To `CCc1cc(C(=O)Nc2cnc(C)c(-n3cc(-c4cncc(N5CCN(C6CC6)CC5)c4)nn3)c2)nn1C(C)(C)C` [I-26] belongs 55 nM; to `CCc1cc(C(=O)Nc2cnc(C)c(-n3cc(-c4cncc(N5CCN(C(C)C)CC5)c4)nn3)c2)nn1C(C)(C)C` [I-27], 12 nM.
Compound `CCCN1CCN(c2cncc(-c3cn(-c4cc(NC(=O)c5cc(CC)n(C(C)(C)C)n5)cnc4C)nn3)c2)CC1` [I-28] came in with an IC50 of 7 nM.
On to `Cc1ncc(NC(=O)c2cc(C)n(C(C)(C)C)n2)cc1-n1cc(-c2cncc(N3CCCN(C(C)C)CC3)c2)nn1` [I-29], for which 19 nM corresponded to half-maximal inhibition (IC50).
`CCc1cc(C(=O)Nc2cnc(C)c(-n3cc(-c4cncc(N5CCN(C)CC5)c4)nn3)c2)nn1C(C)(C)C` [I-30] gave an IC50 of 15 nM.
With `CCc1cc(C(=O)Nc2cnc(C)c(-n3cc(-c4cncc(N5CCN(CC)CC5)c4)nn3)c2)nn1C(C)(C)C` [I-31], it took 12 nM to reach half-maximal inhibition (IC50).
As for `CCCc1cc(C(=O)Nc2cnc(C)c(-n3cc(-c4cncc(N5CCN(C6CC6)CC5)c4)nn3)c2)nn1C(C)(C)C` [I-32], the half-inhibitory concentration (IC50) stood at 71 nM.
Consider `CCCc1cc(C(=O)Nc2cnc(C)c(-n3cc(-c4cncc(N5CCN(CC)CC5)c4)nn3)c2)nn1C(C)(C)C` [I-33], for which the IC50 is 16 nM.
In the case of `CCCc1cc(C(=O)Nc2cnc(C)c(-n3cc(-c4cncc(N5CCN(C(C)C)CC5)c4)nn3)c2)nn1C(C)(C)C` [I-34], 23 nM corresponded to half-maximal inhibition (IC50).
The compound `CCCc1cc(C(=O)Nc2cnc(C)c(-n3cc(-c4cncc(N5CCN(CCC)CC5)c4)nn3)c2)nn1C(C)(C)C` [I-35] came in with an IC50 of 22 nM.
With `CCCc1cc(C(=O)Nc2cnc(C)c(-n3cc(-c4cncc(N5CCN(C)CC5)c4)nn3)c2)nn1C(C)(C)C` [I-36], the 50% inhibitory concentration (IC50) is 18 nM.
Consider `Cc1ncc(NC(=O)c2cc(C(C)C)n(C(C)(C)C)n2)cc1-n1cc(-c2cncc(N3CCN(C)CC3)c2)nn1` [I-37], for which it took 17 nM to reach half-maximal inhibition (IC50).
`Cc1ncc(NC(=O)c2cc(C(C)C)n(C(C)(C)C)n2)cc1-n1cc(-c2cncc(N3CCN(C(C)C)CC3)c2)nn1` [I-38]: inhibition was half-maximal at 29 nM (IC50).
The compound `CCN1CCN(c2cncc(-c3cn(-c4cc(NC(=O)c5cc(C(C)C)n(C(C)(C)C)n5)cnc4C)nn3)c2)CC1` [I-39] returned a half-maximal inhibitory concentration (IC50) of 25 nM.
The compound `CCCN1CCN(c2cncc(-c3cn(-c4cc(NC(=O)c5cc(C(C)C)n(C(C)(C)C)n5)cnc4C)nn3)c2)CC1` [I-40] had an IC50 of 26 nM.
Take `Cc1ncc(NC(=O)c2cc(C3CC3)n(C(C)(C)C)n2)cc1-n1cc(-c2cncc(N3CCN(C)CC3)c2)nn1` [I-41]: inhibition was half-maximal at 16 nM (IC50).
In turn, `Cc1ncc(NC(=O)c2cc(C3CC3)n(C(C)(C)C)n2)cc1-n1cc(-c2cncc(N3CCN(C(C)C)CC3)c2)nn1` [I-42] yielded an IC50 of 22 nM.
In the case of `CCN1CCN(c2cncc(-c3cn(-c4cc(NC(=O)c5cc(C6CC6)n(C(C)(C)C)n5)cnc4C)nn3)c2)CC1` [I-43], half-maximal inhibition (IC50) was put at 22 nM.
`CCCN1CCN(c2cncc(-c3cn(-c4cc(NC(=O)c5cc(C6CC6)n(C(C)(C)C)n5)cnc4C)nn3)c2)CC1` [I-44] gave an IC50 of 30 nM.
In turn, `Cc1ncc(NC(=O)c2cc(C)n(C(C)C)n2)cc1-n1cc(-c2cncc(N3CCN(C)CC3)c2)nn1` [I-45] yielded an IC50 of 9 nM.
`CCN1CCN(c2cncc(-c3cn(-c4cc(NC(=O)c5cc(C)n(C(C)C)n5)cnc4C)nn3)c2)CC1` [I-46] showed an IC50 of 6 nM.
For `Cc1ncc(NC(=O)c2cc(C)n(C(C)C)n2)cc1-n1cc(-c2cncc(N3CCN(C(C)C)CC3)c2)nn1` [I-47] the value was 6 nM; for `CCCN1CCN(c2cncc(-c3cn(-c4cc(NC(=O)c5cc(C)n(C(C)C)n5)cnc4C)nn3)c2)CC1` [I-48], 8 nM; for `Cc1ncc(NC(=O)c2cc(C)n(C(C)C)n2)cc1-n1cc(-c2cncc(N3CCN(C4CC4)CC3)c2)nn1` [I-49], 22 nM.
For `Cc1ncc(NC(=O)c2cc(C)n(C(C)C)n2)cc1-n1cc(-c2cncc(N3CCCN(C)CC3)c2)nn1` [I-50] the value was 5 nM.
